Assay results as given in ChEMBL document CHEMBL1122102, “Hydrogen bonding and anesthetic potency” (J Med Chem, 1982).

Experiments:
[1] = tested on: Homo sapiens; assay: Evaluated in vitro for anesthetic activity in man and minimum alveolar concentration (MAC) was determined; type: functional; set-up: unit not given here
[2] = Partition coefficient was determined in oil/gas system and value was reported; type: ADME
[3] = tested on: Mus musculus; assay: Evaluated in vitro for anesthetic activity in mice and ED50 value was reported; type: functional
[4] = tested on: Canis familiaris; assay: Evaluated in vitro for anesthetic activity in dog and minimum alveolar concentration (MAC) was determined; type: functional, Canis lupus familiaris; set-up: unit not given here

Compound	Partition coefficient [2]	MAC [1]	ED50 [3]	MAC [4]
COC(F)(F)C(Cl)Cl [METHOXYFLURANE]	950	0.16	0.22	0.24
ClC(Cl)Cl [CHLOROFORM]	–	0.5	0.84	0.77
FC(F)OC(F)(F)C(F)Cl (stereo not drawn)	98	1.68	–	2.06

Second part, led by results:

Partition coefficient [2]	Compound	MAC [1]	ED50 [3]	MAC [4]
97	FC(F)OC(Cl)C(F)(F)F (stereo not drawn) [ISOFLURANE]	1.15	0.57	1.28
220	FC(F)(F)C(Cl)Br (stereo not drawn) [HALOTHANE]	0.74	0.77	0.87
